The values that follow are results of earlier work, collected in US20070015686A1, “Dietary supplement for enhancing skeletal muscle mass, decreasing muscle protein degradation, downregulation of muscle catabolism pathways, and decreasing catabolism of muscle cells” (priority 2005, published 2007).

In series [1] the test system is pancreatic β-cells.
In series [2] the target is T1, chymotrypsin-like activity of the proteasome complex (Homo sapiens, UniProt P28074).
T1 sequence (P28074 60-263): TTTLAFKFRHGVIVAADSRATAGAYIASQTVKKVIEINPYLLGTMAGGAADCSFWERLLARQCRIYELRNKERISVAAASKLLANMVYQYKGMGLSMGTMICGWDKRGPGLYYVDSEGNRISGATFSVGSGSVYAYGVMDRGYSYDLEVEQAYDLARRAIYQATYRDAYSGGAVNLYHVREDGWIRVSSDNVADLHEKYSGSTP
The conditions noted are these: in vitro and in vivo; concentrations found in the serum of green tea drinkers.

For series [3] the following is noted: ingestion of a concomitant carbohydrate.
For series [4] the following is noted: laboratory tests; greater than vitamin C and vitamin E.
Series [5] deals with NF-κβ. The following applies: following administration, during inflammation and infection.

SMILES strings stand for the structures.

With `CC(C)=C[C@H]1C[C@](O)([C@H]2CC[C@]3(C)[C@H]2CCC2[C@@]4(C)CC[C@H](O[C@@H]5OC[C@@H](O)[C@H](O[C@@H]6O[C@H](CO)[C@@H](O)[C@H](O)[C@H]6O)[C@@H]5O[C@H]5O[C@H](C)[C@@H](O)[C@H](O)[C@@H]5O)C(C)(C)C4CC[C@]23C)[C@H](O)O1` (stereo partly shown) [phanoside], in series [1], the insulin-releasing activity entry was “potent insulin-releasing activity”.

For the compound `O=C(OC[C@H]1O[C@@H](OC(=O)c2cc(O)c(O)c(OC(=O)c3cc(O)c(O)c(O)c3)c2)[C@H](OC(=O)c2cc(O)c(O)c(OC(=O)c3cc(O)c(O)c(O)c3)c2)[C@@H](OC(=O)c2cc(O)c(O)c(OC(=O)c3cc(O)c(O)c(O)c3)c2)[C@@H]1OC(=O)c1cc(O)c(O)c(OC(=O)c2cc(O)c(O)c(O)c2)c1)c1cc(O)c(O)c(OC(=O)c2cc(O)c(O)c(O)c2)c1` [tannic acid], the “inhibition of the chymotrypsin-like activity of the proteasome complex” value (shortened to “inhibition”) in series [2] was “potent specific inhibitors”.

For `CN(CC(=O)O)C(=N)N` [Creatine, N-methyl-N-guanyl Glycine], in series [3], the “Creatine retention, increased efficiency” value was “up to 60%”.

As to `O=C(O[C@@H]1Cc2c(O)cc(O)cc2O[C@@H]1c1ccc(O)c(O)c1)c1cc(O)c(O)c(O)c1` [ECG, epicatechin gallate], the “inhibition” value in series [2] is recorded as “potent specific inhibitors”.

As for `O=C(O[C@@H]1Cc2c(O)cc(O)cc2O[C@@H]1c1cc(O)c(O)c(O)c1)c1cc(O)c(O)c(O)c1` [EGCG, epigallocatechin gallate], the antioxidant activity result in series [4] is “potent antioxidant activity”. Further, the “inhibition” value in series [2] was “potent specific inhibitors”.

Take `CC1=C(/C=C/C(C)=C/C=C/C(C)=C/C=C/C=C(C)/C=C/C=C(C)/C=C/C2=C(C)C(=O)[C@@H](O)CC2(C)C)C(C)(C)C[C@H](O)C1=O` [astaxanthin]: the “NF-κβ activation / nuclear translocation” value in series [5] was “decreased NF-κβ activation”.
